Columns and labels:
[1] = biological target: T1, Botulinum neurotoxin type A (Clostridium botulinum, UniProt P0DPI0); assay: Inhibition of Clostridium botulinum BoNT/A using SNAP-25 (66-mer) as substrate by LC-MS analysis
[2] = biological target: T1, Botulinum neurotoxin type A; assay: Inhibition of Clostridium botulinum BoNT/A light chain

T1 sequence (P0DPI0 2-448 limits assumed): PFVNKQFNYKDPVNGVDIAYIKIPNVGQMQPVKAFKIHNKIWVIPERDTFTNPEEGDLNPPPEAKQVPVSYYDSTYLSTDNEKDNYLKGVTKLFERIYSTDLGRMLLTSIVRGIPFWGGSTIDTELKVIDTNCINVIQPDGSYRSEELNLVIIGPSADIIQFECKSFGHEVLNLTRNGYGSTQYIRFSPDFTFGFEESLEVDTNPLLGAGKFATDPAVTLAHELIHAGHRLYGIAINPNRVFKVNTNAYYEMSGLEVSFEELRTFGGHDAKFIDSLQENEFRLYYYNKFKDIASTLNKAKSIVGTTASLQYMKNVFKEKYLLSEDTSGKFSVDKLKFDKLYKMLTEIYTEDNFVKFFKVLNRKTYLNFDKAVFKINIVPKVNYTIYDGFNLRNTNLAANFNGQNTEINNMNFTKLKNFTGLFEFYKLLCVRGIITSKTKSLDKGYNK

O=C(C[C@@H](CCO)c1ccc(Cl)cc1Cl)NO
IC50 [1]: 1 µM

N=C(N)NCCC[C@H](N)C(=O)NO
Ki [2]: 60 µM

O=C(C[C@H](CCO)c1ccc(Cl)cc1)NO
IC50 [1]: 36 µM

O=C(C[C@H](CCO)c1ccc(Cl)cc1Cl)NO
IC50 [1]: 21 µM

O=C(C[C@@H](CCO)c1ccc(Cl)cc1)NO
IC50 [1]: 8 µM

— ChEMBL document CHEMBL4834496 (ACS Med Chem Lett, 2021)
